Test results: patent US20240252488A1 (KOREA RESEARCH INSTITUTE OF CHEMICAL TECHNOLOGY, priority 2020, published 2024)

What was measured:
[1] = biological target: T1, MLKL (Homo sapiens, UniProt Q8NB16); experiment: Measurement of binding affinity with MLKL receptor (competitive binding assay, Kd); parameters: made in house; host or cells: HEK 293 cell line (T7 phage in E. coli BL21-derived host is also described)
T1 sequence (Q8NB16 1-471): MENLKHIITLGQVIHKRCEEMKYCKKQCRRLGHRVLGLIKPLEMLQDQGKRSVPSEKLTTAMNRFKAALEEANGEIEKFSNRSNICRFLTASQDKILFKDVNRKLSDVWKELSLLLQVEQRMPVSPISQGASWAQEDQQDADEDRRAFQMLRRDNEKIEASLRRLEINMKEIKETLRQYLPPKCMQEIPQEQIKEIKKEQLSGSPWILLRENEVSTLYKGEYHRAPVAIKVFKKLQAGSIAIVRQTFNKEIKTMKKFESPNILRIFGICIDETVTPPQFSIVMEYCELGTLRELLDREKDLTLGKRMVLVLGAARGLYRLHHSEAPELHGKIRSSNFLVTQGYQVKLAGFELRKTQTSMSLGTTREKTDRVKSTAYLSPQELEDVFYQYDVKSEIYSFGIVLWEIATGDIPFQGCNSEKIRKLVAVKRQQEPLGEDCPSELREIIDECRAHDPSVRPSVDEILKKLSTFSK
Method in brief: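 Competition binding of kinase tagged with DNA for qPCR detection, expressed in HEK 293 cells, against immobilized ligand on beads. Final DMSO 0.9%. Kd derived from kinase amount in eluates measured by qPCR.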

[2] = biological target: T1, MLKL; experiment: MLKL degradation assay in HepG2 cell line (western blot); format: cell-based; parameters: endogenous in cells; host or cells: HepG2 or HaCaT; conditions: cell line not given; for Degradation assay (Degradation %) 1 μM: compound 1 μM; for Degradation assay (Degradation %) 10 μM: compound 10 μM
Method in brief: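 After treating HepG2 with test compounds (final 1 μM or 10 μM) for 20-24 h, we lysed cells, equalized protein by BCA and probed MLKL by overnight primary antibody at 4 °C followed by chemiluminescent detection.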

[3] = tested on: FADD−/− Jurkat cells; experiment: Necroptosis inhibition assay, TNF-α-induced necroptosis (CellTiter-Glo 2.0); format: cell-based, human; conditions: TNF-α 15 ng/mL; for Necroptosis inhibition assay (Rescue %) 1 μM: compound 1 μM; for Necroptosis inhibition assay (Rescue %) 10 μM: compound 10 μM
Method in brief: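 Necroptosis was triggered by TNF-α at 15 ng/mL final following 30 minutes of compound exposure (0.1, 1 or 10 μM final). Incubation ran 20 to 24 hours at 37° C under 5% CO2; cell ATP was then quantified by luminescence.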

Row | Structure (SMILES) | Kd [1] | Degradation assay (Degradation %) 1 μM [2] | Degradation assay (Degradation %) 10 μM [2] | Necroptosis inhibition assay (Rescue %) 1 μM [3] | Necroptosis inhibition assay (Rescue %) 10 μM [3] | Necroptosis inhibition assay (Rescue %) 1 μM ([3]; FADD−/− Jurkat cells) | Necroptosis inhibition assay (Rescue %) 10 μM ([3]; FADD−/− Jurkat cells)
1 | Nc1ncc(-c2cnn(C3CCN(CCCCCCCCCCNC(=O)CNc4ccc5nnn(C6CCC(=O)NC6=O)c(=O)c5c4)CC3)c2)nc1C(=O)O[C@@H](C(=O)Nc1ccc(F)cc1)c1ccccc1 (stereo partly drawn) [TDH-173, (R)-2-((4-fluorophenyl)amino)-2-oxo-1-phenylethyl 3-amino-6-(1-(1-(10-(2-((3-(2,6-dioxopiperidin-3-yl)-4-oxo-3,4-dihydrobenzo[d][1,2,3]triazin-6-yl)amino)acetamido)decyl)piperidin-4-yl)-1H-pyrazol-4-yl)pyrazine-2-carboxylate] | 17 nM | 61.08% | 75.11% | 47.27% | 35.55% |  | 
2 | Nc1ncc(-c2cnn(C3CCN(C(=O)COCCOCCNC(=O)COc4cccc5c4C(=O)N(C4CCC(=O)NC4=O)C5=O)CC3)c2)nc1C(=O)O[C@@H](C(=O)Nc1ccc(F)cc1)c1ccccc1 (stereo partly drawn) [TDH-188, (R)-2-((4-fluorophenyl)amino)-2-oxo-1-phenylethyl 3-amino-6-(1-(1-(2-(2-(2-(2-((2-(2,6-dioxopiperidin-3-yl)-1,3-dioxoisoindolin-4-yl)oxy)acetamido)ethoxy)ethoxy)acetyl)piperidin-4-yl)-1H-pyrazol-4-yl)pyrazine-2-carboxylate] | 3.5 nM | 7.04% | 5.3% | 45.68% | 42.08% |  | 
3 | Nc1ncc(-c2cnn(C3CCN(CCCN4CCN(C(=O)C5CCN(c6ccc7c(c6)C(=O)N(C6CCC(=O)NC6=O)C7=O)CC5)CC4)CC3)c2)nc1C(=O)OC(C(=O)Nc1ccc(F)cc1)c1ccccc1 (stereo not drawn) [TDH-240, 2-((4-fluorophenyl)amino)-2-oxo-1-phenylethyl 3-amino-6-(1-(1-(3-(4-(1-(2-(2,6-dioxopiperidin-3-yl)-1,3-dioxoisoindolin-5-yl)piperidine-4-carbonyl)piperazin-1-yl)propyl)piperidin-4-yl)-1H-pyrazol-4-yl)pyrazine-2-carboxylate] | 4.2 nM | 88.47% |  | 43.23% | 14.03% |  | 
4 | Nc1ncc(-c2cnn(C3CCN(CC4CN(C(=O)COc5ccc6c(c5)C(=O)N(C5CCC(=O)NC5=O)C6=O)CCO4)CC3)c2)nc1C(=O)O[C@@H](C(=O)Nc1ccc(F)cc1)c1ccccc1 (stereo partly drawn) [TDH-390, (R)-2-((4-fluorophenyl)amino)-2-oxo-1-phenylethyl 3-amino-6-(1-(1-((4-(2-((2-(2,6-dioxopiperidin-3-yl)-1,3-dioxoisoindolin-5-yl)oxy)acetyl)morpholin-2-yl)methyl)piperidin-4-yl)-1H-pyrazol-4-yl)pyrazine-2-carboxylate] | 2.6 nM | 80.07% | 93.00% | 46.50% | 36.13% |  | 
5 | Nc1ncc(-c2cnn(C3CCN(C(=O)COC4CCN(c5cccc6c5C(=O)N(C5CCC(=O)NC5=O)C6=O)CC4)CC3)c2)nc1C(=O)O[C@@H](C(=O)Nc1ccc(F)cc1)c1ccccc1 (stereo partly drawn) [TDH-399, (R)-2-((4-fluorophenyl)amino)-2-oxo-1-phenylethyl 3-amino-6-(1-(1-(2-((1-(2-(2,6-dioxopiperidin-3-yl)-1,3-dioxoisoindolin-4-yl)piperidin-4-yl)oxy)acetyl)piperidin-4-yl)-1H-pyrazol-4-yl)pyrazine-2-carboxylate] | 7.6 nM | 74.40% | 71.63% | 34.21% | 27.35% |  | 
6 | Nc1ncc(-c2cnn(C3CCN(CCOC4CCN(C(=O)CNc5ccc6c(c5)C(=O)N(C5CCC(=O)NC5=O)C6=O)CC4)CC3)c2)nc1C(=O)OC(C(=O)Nc1ccc(F)cc1)c1ccccc1 (stereo not drawn) [TDH-250, 2-((4-fluorophenyl)amino)-2-oxo-1-phenylethyl 3-amino-6-(1-(1-(2-((1-((2-(2,6-dioxopiperidin-3-yl)-1,3-dioxoisoindolin-5-yl)glycyl)piperidin-4-yl)oxy)ethyl)piperidin-4-yl)-1H-pyrazol-4-yl)pyrazine-2-carboxylate] | 4.9 nM | 78.33% | 71.54% | 69.46% | 46.6% |  | 
7 | Nc1ncc(-c2cnn(C3CCN(CCOCCNC(=O)COc4cccc5c4C(=O)N(C4CCC(=O)NC4=O)C5=O)CC3)c2)nc1C(=O)O[C@@H](C(=O)Nc1ccc(F)cc1)c1ccccc1 (stereo partly drawn) [TDH-134, (R)-2-((4-fluorophenyl)amino)-2-oxo-1-phenylethyl 3-amino-6-(1-(1-(2-(2-(2-((2-(2,6-dioxopiperidin-3-yl)-1,3-dioxoisoindolin-4-yl)oxy)acetamido)ethoxy)ethyl)piperidin-4-yl)-1H-pyrazol-4-yl)pyrazine-2-carboxylate] | 3 nM | 14.36% | 54.11% | 50.04% | 86.09% |  | 

The next compounds have a lower Kd [1] than those just listed; values first:

Row | Kd [1] | Degradation assay (Degradation %) 1 μM [2] | Degradation assay (Degradation %) 10 μM [2] | Structure (SMILES) | Necroptosis inhibition assay (Rescue %) 1 μM [3] | Necroptosis inhibition assay (Rescue %) 10 μM [3] | Necroptosis inhibition assay (Rescue %) 1 μM ([3]; FADD−/− Jurkat cells) | Necroptosis inhibition assay (Rescue %) 10 μM ([3]; FADD−/− Jurkat cells)
8 | 1.4 nM | 73.04% | 66.71% | Nc1ncc(-c2cnn(C3CCN(CC4CCN(C(=O)CCc5cccc6c5C(=O)N(C5CCC(=O)NC5=O)C6=O)CC4)CC3)c2)nc1C(=O)O[C@@H](C(=O)Nc1ccc(F)cc1)c1ccccc1 (stereo partly drawn) [TDH-336, (R)-2-((4-fluorophenyl)amino)-2-oxo-1-phenylethyl 3-amino-6-(1-(1-((1-(3-(2-(2,6-dioxopiperidin-3-yl)-1,3-dioxoisoindolin-4-yl)propanoyl)piperidin-4-yl)methyl)piperidin-4-yl)-1H-pyrazol-4-yl)pyrazine-2-carboxylate] | 39.89% | 19.67% |  | 
9 | 1.3 nM | 84.27% | 51.16% | Nc1ncc(-c2cnn(C3CCN(CCC4CCN(C5=CC(=O)N(C6CCC(=O)NC6=O)C5=O)CC4)CC3)c2)nc1C(=O)O[C@@H](C(=O)Nc1ccc(F)cc1)c1ccccc1 (stereo partly drawn) [TDH-522, (R)-2-((4-fluorophenyl)amino)-2-oxo-1-phenylethyl 3-amino-6-(1-(1-(2-(1-(1-(2,6-dioxopiperidin-3-yl)-2,5-dioxo-2,5-dihydro-1H-pyrrol-3-yl)piperidin-4-yl)ethyl)piperidin-4-yl)-1H-pyrazol-4-yl)pyrazine-2-carboxylate] |  |  | 21.52% | −21.15%
10 | 0.97 nM | 62.01% | 51.12% | Nc1ncc(-c2cnn(C3CCN(CCC4CCN(C(=O)C5CCN(c6cccc7c6C(=O)N(C6CCC(=O)NC6=O)C7=O)CC5)CC4)CC3)c2)nc1C(=O)O[C@@H](C(=O)Nc1ccc(F)cc1)c1ccccc1 (stereo partly drawn) [TDH-196, (R)-2-((4-fluorophenyl)amino)-2-oxo-1-phenylethyl 3-amino-6-(1-(1-(2-(1-(1-(2-(2,6-dioxopiperidin-3-yl)-1,3-dioxoisoindolin-4-yl)piperidine-4-carbonyl)piperidin-4-yl)ethyl)piperidin-4-yl)-1H-pyrazol-4-yl)pyrazine-2-carboxylate] | 60.75% | 34% |  | 
11 | 0.92 nM | 71.41% | 57.83% | Nc1ncc(-c2cnn(C3CCN(C(=O)C4CCN(C(=O)CNc5cccc6nnn(C7CCC(=O)NC7=O)c(=O)c56)CC4)CC3)c2)nc1C(=O)O[C@@H](C(=O)Nc1ccc(F)cc1)c1ccccc1 (stereo partly drawn) [TDH-413, (R)-2-((4-fluorophenyl)amino)-2-oxo-1-phenylethyl 3-amino-6-(1-(1-(1-((3-(2,6-dioxopiperidin-3-yl)-4-oxo-3,4-dihydrobenzo[d][1,2,3]triazin-5-yl)glycyl)piperidine-4-carbonyl)piperidin-4-yl)-1H-pyrazol-4-yl)pyrazine-2-carboxylate] |  |  | 24.79% | 18.59%
